Data from US20260315434A1, “USE OF GUAIACOL SESQUITERPENE LACTONE DERIVATIVES” (NANJING UNIVERSITY OF CHINESE MEDICINE, priority 2023, published 2026).
Read-outs that look alike come from different tables or passages of the source.

Key:
[1] = test system: Hepa1-6 cells; test: Antitumor effect in Hepa1-6 mouse hepatocellular carcinoma subcutaneous xenograft model; format: in vivo, C57BL/6 mice
[2] = test system: MDSCs; test: Proportion of MDSCs in tumor and spleen of H22 xenograft mice (flow cytometry); format: in vivo, BALB/c mice; settings: for Spleen MDSCs (%) / Tumor-associated MDSCs (%): 40 μmol/kg/day, oral, 2 weeks, flow cytometry
Method: Once all tumors were dissected, nail-sized tumor pieces were transferred to 1.5 mL Eppendorf tubes and minced with scissors. Transfer the minced tumor tissue suspension to a 15 mL centrifuge tube containing 3-5 mL of digestive enzymes (Collagenase IV 1 mg/mL, Hyaluronidase 1 mg/mL, DNase 120 U/mL). Incubate at 200 rpm and 37° C. for 1 hour. After digestion, pass the mixture through a 200-mesh sieve to obtain the tumor cell suspension. Centrifuge the resulting tumor suspension at 1600 rpm for 5 min, aspirate the supernatant, resuspend cells in 1 mL of 1×PBS per tube. Transfer the cell suspension to a 1.5 mL Eppendorf tube, centrifuge at 1600 rpm for 5 min, remove the supernatant, resuspend cells in 100 μL of 1×PBS per tube, add 1 μL of dead/live dye to each tube, mix thoroughly, and incubate at room temperature in the dark for 15 min. […] Position the spleen on a 200-mesh cell strainer. Gently press the spleen using a 10 mL syringe needle. […] Transfer the washed splenocyte suspension into a 15 mL centrifuge tube. Centrifuge at 1600 rpm for 5 min to collect cells. Wash once with 1×PBS. Add 3 mL red blood cell lysis buffer (diluted with ddH2O) to each tube and incubate for 5 min. After lysis, add 10 mL 1×PBS to each tube to terminate lysis. Centrifuge at 1600 rpm for 5 min. Add 1 mL 1×PBS to each 15 mL centrifuge tube, transfer to 1.5 mL EP tubes, and centrifuge at 1600 rpm for 5 min. Add 1 mL 1×PBS to each tube containing stained tumor cells and lysed spleen cells for one wash, centrifuge at 1600 rpm for 5 min, and remove the supernatant. Resuspend tumor cells and spleen cells separately in 100 μL 1×PBS. Add 1 μL FcX™ antibody to each tube and incubate at room temperature in the dark for 10 min. After incubation, sequentially add 1 μL each of CD45, CD11b, Gr1 antibodies. Incubate at 4° C. in the dark for 30 min. After incubation, wash once with 1×PBS, discard the supernatant, resuspend cells in 300 μL 1×PBS, filter the membrane into a flow cytometry tube, and proceed to instrument analysis.

[3] = Conversion (release) of prodrug salts to parent compound in HEPES buffer pH 7.4; format: in vitro ADME; settings: for Release rate (conversion to Compound 1): HEPES pH 7.4, 37 °C; for degraded at 1 h / degraded at 2 h / degraded at 4 h / degraded at 8 h / degraded at 12 h: hepes buffer, pH 7.4, HEPES pH 7.4, 37 °C
How it was run: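 Salt dissolved in water, mixed 1:1 with HEPES solution pH 7.4 (NaCl, KCl, Na2HPO4, glucose) and held at 37° C. At 1, 2, 4, 8 and 12 h, samples were methanol-quenched, centrifuged and analysed by reversed-phase HPLC at 210 nm, with peak areas recorded for conversion to parent compound.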

[4] = test system: renal injury markers (Ngal, Havcr1) in kidney tissue; test: Folic acid-induced acute kidney injury, renal injury marker mRNA; format: in vivo, C57BL/6 mice; parameters: scale not given here; settings: folic acid acute model
Method: Except for the normal group, all other mice were administered folic acid (250 mg/kg) dissolved in 0.9% NaHCO3 solution via intraperitoneal injection to establish an acute kidney injury model.
(§1) The blood was allowed to stand at room temperature for 2 hours, then centrifuged at 3000 rpm for 20 minutes. Serum was aspirated, aliquoted, and stored at −70° C. for future use. Following blood collection, euthanize mice by cervical dislocation. Perform laparotomy to remove kidneys, dissect out perirenal fat and capsules. […] Paraffin-embedded specimens undergo HE staining; remaining tissue is stored at −70° C. for future use.

[5] = Conversion (release) of prodrug salts to parent compound in mouse plasma; format: in vitro ADME; settings: 37 °C; for metabolised at 1 h / metabolised at 2 h / metabolised at 4 h / metabolised at 8 h / metabolised at 12 h: mouse, plasma
How it was run: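 Salts (0.6 mg in 250 μL water) were mixed 1:1 with heparinized mouse plasma or HEPES pH 7.4 and incubated at 37 °C. Samples were methanol-quenched and taken at 1–12 h. Parent compound was quantified by C18 HPLC-UV at 210 nm using peak areas.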

[6] = test system: renal injury markers (Ngal, Havcr1) in kidney tissue; test: Unilateral ureteral ligation (UUO) chronic kidney injury, renal injury marker mRNA; format: in vivo, C57BL/6 mice; parameters: unit not given here; settings: UUO chronic model
From the text: Chronic Kidney Injury: Mice were randomly divided into five groups. […] Except for the sham-operated mice in the normal group (where only the left ureter was exposed without further manipulation), all other mice underwent unilateral ureteral ligation to establish a chronic kidney injury model as follows: The abdominal skin was disinfected with iodine solution followed by alcohol. An incision was made, and the abdominal layers were dissected sequentially. The left ureter was fully exposed and dissected. A double ligation was performed at the bladder-proximal end of the left ureter using absorbable suture material, followed by closure.
as §1

[7] = compared with solvent control, result in words
[8] = 1 h, read-out: Release rate (conversion to Compound 83)
[9] = 2 h, read-out: Release rate (conversion to Compound 83)
[10] = 4 h, read-out: Release rate (conversion to Compound 83)
[11] = 8 h, read-out: Release rate (conversion to Compound 83)
[12] = 12 h, read-out: Release rate (conversion to Compound 83)
[13] = 40 μmol/kg/d oral, 2 weeks, solvent 0.92 ± 1.41
[14] = 1 h, read-out: Release rate (conversion to Compound 82)
[15] = 2 h, read-out: Release rate (conversion to Compound 82)
[16] = 4 h, read-out: Release rate (conversion to Compound 82)
[17] = 8 h, read-out: Release rate (conversion to Compound 82)
[18] = 12 h, read-out: Release rate (conversion to Compound 82)

SMILES: C=C1C(=O)O[C@@H]2[C@H]3C(C)=CC[C@@]34O[C@@]4(C)CC[C@@H]12 [Arg, Arglabin, reference compound]
- Tumor weight ([1]; mouse, in vivo, po): 0.04 ± 0.03 g
- proportion of MDSCs in tumor tissues and spleens ([2]; mouse, in vivo): significantly reduced

SMILES: CN(C)C[C@@H]1C(=O)O[C@H]2[C@H]1CC[C@@]1(C)C[C@]13CC[C@@](C)(O)[C@H]23 [Compound 20]
- Release rate (conversion to Compound 1) ([3]; 1 h, 60 min): 6.2%
- Release rate (conversion to Compound 1) ([3]; 2 h, 120 min): 13.8%
- Release rate (conversion to Compound 1) ([3]; 4 h, 240 min): 21.7%
- Release rate (conversion to Compound 1) ([3]; 8 h, 480 min): 44.3%
- Release rate (conversion to Compound 1) ([3]; 12 h, 720 min): 59.1%
- Havcr1 mRNA expression, kidney ([4]; 1 mg/kg oral, 1 mg/kg): 62.86 ± 12.20
- Ngal mRNA expression, kidney ([4]; 1 mg/kg oral, 1 mg/kg): 13.05 ± 1.82
- Release rate (conversion to Compound 1) ([5]; 1 h, 60 min): 7.3%
- Release rate (conversion to Compound 1) ([5]; 2 h, 120 min): 12.9%
- Release rate (conversion to Compound 1) ([5]; 4 h, 240 min): 28.6%
- Release rate (conversion to Compound 1) ([5]; 8 h, 480 min): 46.8%
- Release rate (conversion to Compound 1) ([5]; 12 h, 720 min): 62.9%
- Havcr1 mRNA expression, kidney ([6]; 1 mg/kg oral, 1 mg/kg): 6.29 ± 2.43
- Ngal mRNA expression, kidney ([6]; 1 mg/kg oral, 1 mg/kg): 16.14 ± 2.74
- Spleen MDSCs (%) [2]: 23.10 ± 5.35 %
- Tumor-associated MDSCs (%) [2]: 7.86 ± 6.19 %
- proportion of MDSCs in tumor tissues and spleens [2, 7]: significantly reduced

SMILES: CN(C)C[C@@H]1C(=O)O[C@H]2[C@H]1CC[C@@]1(C)C[C@]13CC[C@@](C)(O)[C@H]23 [Compound 21]
- Release rate (conversion to Compound 1) ([3]; 1 h, 60 min): 3.3%
- Release rate (conversion to Compound 1) ([3]; 2 h, 120 min): 10.2%
- Release rate (conversion to Compound 1) ([3]; 4 h, 240 min): 18.1%
- Release rate (conversion to Compound 1) ([3]; 8 h, 480 min): 38.9%
- Release rate (conversion to Compound 1) ([3]; 12 h, 720 min): 51.9%
- Havcr1 mRNA expression, kidney ([4]; 0.1 mg/kg oral): 170.08 ± 33.10
- Ngal mRNA expression, kidney ([4]; 0.1 mg/kg oral): 25.75 ± 2.80
- Havcr1 mRNA expression, kidney ([4]; 1 mg/kg oral, 1 mg/kg): 83.11 ± 16.85
- Ngal mRNA expression, kidney ([4]; 1 mg/kg oral, 1 mg/kg): 13.08 ± 2.41
- Release rate (conversion to Compound 1) ([5]; 1 h, 60 min): 5.4%
- Release rate (conversion to Compound 1) ([5]; 2 h, 120 min): 10.7%
- Release rate (conversion to Compound 1) ([5]; 4 h, 240 min): 17.9%
- Release rate (conversion to Compound 1) ([5]; 8 h, 480 min): 39.3%
- Release rate (conversion to Compound 1) ([5]; 12 h, 720 min): 55.4%
- Havcr1 mRNA expression, kidney ([6]; 0.1 mg/kg oral): 11.90 ± 4.52
- Ngal mRNA expression, kidney ([6]; 0.1 mg/kg oral): 35.77 ± 7.67
- Havcr1 mRNA expression, kidney ([6]; 1 mg/kg oral, 1 mg/kg): 7.25 ± 0.80
- Ngal mRNA expression, kidney ([6]; 1 mg/kg oral, 1 mg/kg): 19.42 ± 1.55

SMILES: CC1=C2CC[C@@](C)(OC(=O)N3CCCCC3)[C@@H]2[C@H]2OC(=O)[C@@H](CN(C)C)[C@@H]2CC1 [Compound 102]
- degraded at 1 h [3, 8]: 6.8%
- degraded at 2 h [3, 9]: 14.6%
- degraded at 4 h [3, 10]: 24.8%
- degraded at 8 h [3, 11]: 43%
- degraded at 12 h [3, 12]: 51.8%
- Tumor Inhibition Rate ([1]; 40 μmol/kg/d oral, 2 weeks): 96.67%
- Tumor weight [1, 13]: 0.03 ± 0.04 g
- metabolised at 1 h [5, 8]: 6.6%
- metabolised at 2 h [5, 9]: 14%
- metabolised at 4 h [5, 10]: 26%
- metabolised at 8 h [5, 11]: 42.4%
- metabolised at 12 h [5, 12]: 47.8%
- Spleen MDSCs (%) [2]: 30.37 ± 9.84 %
- Tumor-associated MDSCs (%) [2]: 32.11 ± 6.33 %
- proportion of MDSCs in tumor tissues and spleens [2, 7]: significantly reduced

SMILES: CC1=C2CC[C@@](C)(OC(=O)N3CCCC3)[C@@H]2[C@H]2OC(=O)[C@@H](CN3CCCC3)[C@@H]2CC1 [Compound 103]
- degraded at 1 h [3, 14]: 6.4%
- degraded at 2 h [3, 15]: 14.2%
- degraded at 4 h [3, 16]: 26%
- degraded at 8 h [3, 17]: 45.6%
- degraded at 12 h [3, 18]: 52.6%
- Havcr1 mRNA expression, kidney ([4]; 0.1 mg/kg oral): 452.14 ± 212.69
- Ngal mRNA expression, kidney ([4]; 0.1 mg/kg oral): 148.49 ± 116.61
- Havcr1 mRNA expression, kidney ([4]; 1 mg/kg oral): 415.10 ± 120.96
- Ngal mRNA expression, kidney ([4]; 1 mg/kg oral): 85.57 ± 27.78
- Havcr1 mRNA expression, kidney ([4]; 10 mg/kg oral): 331.69 ± 98.67
- Ngal mRNA expression, kidney ([4]; 10 mg/kg oral): 69.68 ± 25.32
- Tumor Inhibition Rate ([1]; 40 μmol/kg/d oral, 2 weeks): 96.22%
- Tumor weight [1, 13]: 0.03 ± 0.06 g
- metabolised at 1 h [5, 14]: 7.2%
- metabolised at 2 h [5, 15]: 13.2%
- metabolised at 4 h [5, 16]: 26.8%
- metabolised at 8 h [5, 17]: 44.5%
- metabolised at 12 h [5, 18]: 53.4%
- Havcr1 mRNA expression, kidney ([6]; 0.1 mg/kg oral): 117.81 ± 37.55
- Ngal mRNA expression, kidney ([6]; 0.1 mg/kg oral): 145.28 ± 50.31
- Havcr1 mRNA expression, kidney ([6]; 1 mg/kg oral): 88.33 ± 33.24
- Ngal mRNA expression, kidney ([6]; 1 mg/kg oral): 118.82 ± 38.60
- Havcr1 mRNA expression, kidney ([6]; 10 mg/kg oral): 93.99 ± 49.52
- Ngal mRNA expression, kidney ([6]; 10 mg/kg oral): 104.98 ± 18.55
- Spleen MDSCs (%) [2]: 24.33 ± 5.02 %
- Tumor-associated MDSCs (%) [2]: 10.62 ± 6.50 %
- proportion of MDSCs in tumor tissues and spleens [2, 7]: significantly reduced
